Test results: US20250353891A1 (MEDIMMUNE LIMITED, priority 2022, published 2025)
Starred links: 1 amine or outer side, 2 acyl side, 3 side chain; linkers in the order of their positions; H or OH if unused. Non-standard residues stand in square brackets, D forms with d. Residues, ends and D or L forms follow the SMILES beside them. Groups on a side chain read outwards from the residue. *: point of attachment. C18 diacid = O=C(O)CCCCCCCCCCCCCCCCC(=O)*; γGlu = O=C(O)[C@H](CCC(=O)[*:2])N[*:1]; αMeF = C[C@](N)(Cc1ccccc1)C(=O)O; AEEA = NCCOCCOCC(=O)O; Aib = CC(C)(N)C(=O)O

Assays:
[1] = molecular target: human GLP-1 receptor (hGLP-1R) (Homo sapiens, UniProt P43220); assay: cAMP production (HTRF) in CHO cells expressing hGLP-1R; format: cell-based; set-up: expressed in transfected cells; settings: for EC50: Table 6, peptides modified at position 17, cAMP in CHO hGLP-1R cells, geometric mean, read-out: hGLP-1R EC50; for % Relative Potency Ratio: Table 6, % GLP-1R activity relative to GLP-1 / % GlucR activity relative to glucagon
Sequence of human GLP-1 receptor (hGLP-1R) (P43220 24-463): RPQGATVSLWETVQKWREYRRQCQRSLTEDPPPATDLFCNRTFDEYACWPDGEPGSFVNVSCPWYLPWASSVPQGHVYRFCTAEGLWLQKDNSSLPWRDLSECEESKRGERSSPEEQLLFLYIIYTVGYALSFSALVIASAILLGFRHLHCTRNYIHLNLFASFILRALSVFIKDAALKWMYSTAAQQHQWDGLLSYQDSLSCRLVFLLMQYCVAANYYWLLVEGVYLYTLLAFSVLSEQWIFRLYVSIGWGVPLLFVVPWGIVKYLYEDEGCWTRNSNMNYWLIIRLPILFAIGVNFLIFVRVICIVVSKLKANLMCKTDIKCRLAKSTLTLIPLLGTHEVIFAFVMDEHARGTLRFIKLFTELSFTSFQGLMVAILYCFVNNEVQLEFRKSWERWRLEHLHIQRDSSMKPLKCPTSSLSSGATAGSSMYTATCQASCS
Procedure, shortened: (§1)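 Potency values represent EC50 from 4-parameter logistic curves of HTRF % Delta F signal. Receptor-expressing CHO cells (hGCGR 2×10^5 cells/mL, hGLP-1R 1×10^5 cells/mL) were exposed for 30 min at room temperature before two-step cAMP detection.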

[2] = molecular target: human glucagon receptor (hGCGR) (Homo sapiens, UniProt P47871); assay: cAMP production (HTRF) in CHO cells expressing hGCGR; format: cell-based; set-up: expressed in transfected cells; settings: Table 6, peptides modified at position 17; cAMP in CHO hGCGR cells; geometric mean; read-out: hGluc-R EC50
Sequence of human glucagon receptor (hGCGR) (P47871 26-477): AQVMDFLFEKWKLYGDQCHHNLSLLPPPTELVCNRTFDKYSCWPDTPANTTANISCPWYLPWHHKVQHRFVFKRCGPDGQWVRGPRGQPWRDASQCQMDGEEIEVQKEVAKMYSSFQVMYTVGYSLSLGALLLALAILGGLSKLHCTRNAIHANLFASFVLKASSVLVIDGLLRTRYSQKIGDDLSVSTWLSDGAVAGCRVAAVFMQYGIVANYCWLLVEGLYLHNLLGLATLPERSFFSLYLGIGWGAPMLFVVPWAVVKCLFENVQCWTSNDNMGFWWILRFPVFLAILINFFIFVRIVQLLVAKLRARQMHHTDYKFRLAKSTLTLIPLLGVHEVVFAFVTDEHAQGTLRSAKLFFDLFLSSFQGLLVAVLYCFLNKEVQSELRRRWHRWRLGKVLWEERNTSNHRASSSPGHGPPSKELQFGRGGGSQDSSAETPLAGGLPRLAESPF
Procedure, shortened: as §1

Row | EC50 [1] | % Relative Potency Ratio [1] | EC50 [2] | Structure (SMILES)
1 | 0.0327 nM | 2.2 | 0.0369 nM | CC(C)C[C@H](NC(=O)[C@H](CC(C)C)NC(=O)[C@H](Cc1c[nH]c2ccccc12)NC(=O)[C@H](CCCNC(=N)N)NC(=O)[C@@H](NC(=O)[C@H](Cc1ccccc1)NC(=O)[C@H](CC(=O)O)NC(=O)[C@H](CCC(N)=O)NC(=O)[C@H](C)NC(=O)[C@H](CCCNC(=N)N)NC(=O)[C@H](CCCCNC(=O)COCCOCCNC(=O)COCCOCCNC(=O)CC[C@H](NC(=O)CCCCCCCCCCCCCCCCC(=O)O)C(=O)O)NC(=O)[C@H](CCCCN)NC(=O)[C@H](CC(=O)O)NC(=O)[C@H](CC(C)C)NC(=O)[C@](C)(Cc1ccccc1)NC(=O)[C@H](CCCCN)NC(=O)[C@H](CO)NC(=O)[C@@H](NC(=O)[C@H](CC(=O)O)NC(=O)[C@H](CO)NC(=O)[C@@H](NC(=O)[C@H](Cc1ccccc1)NC(=O)[C@@H](NC(=O)CNC(=O)[C@H](CCC(N)=O)NC(=O)C(C)(C)NC(=O)[C@@H](N)Cc1c[nH]cn1)[C@@H](C)O)[C@@H](C)O)C(C)C)C(C)C)C(=O)N[C@@H](C)C(=O)N[C@@H](CCC(=O)O)C(N)=O [Peptide 459] (H-H[Aib]QGTFTSDVSK[αMeF]LDKK([AEEA-AEEA-γGlu-C18 diacid])RAQDFVRWLLAE-NH2)
2 | 0.117 nM | 1.1 | 0.0665 nM | CC(C)C[C@H](NC(=O)[C@H](CC(C)C)NC(=O)[C@H](Cc1c[nH]c2ccccc12)NC(=O)[C@H](CCCNC(=N)N)NC(=O)[C@@H](NC(=O)[C@H](Cc1ccccc1)NC(=O)[C@H](CC(=O)O)NC(=O)[C@H](CCC(N)=O)NC(=O)[C@H](C)NC(=O)[C@H](CCCNC(=N)N)NC(=O)[C@H](CCCCNC(=O)COCCOCCNC(=O)COCCOCCNC(=O)CC[C@H](NC(=O)CCCCCCCCCCCCCCCCCCC(=O)O)C(=O)O)NC(=O)[C@H](CCCCN)NC(=O)[C@H](CC(=O)O)NC(=O)[C@H](CC(C)C)NC(=O)[C@](C)(Cc1ccccc1)NC(=O)[C@H](CCCCN)NC(=O)[C@H](CO)NC(=O)[C@@H](NC(=O)[C@H](CC(=O)O)NC(=O)[C@H](CO)NC(=O)[C@@H](NC(=O)[C@H](Cc1ccccc1)NC(=O)[C@@H](NC(=O)CNC(=O)[C@H](CCC(N)=O)NC(=O)C(C)(C)NC(=O)[C@@H](N)Cc1c[nH]cn1)[C@@H](C)O)[C@@H](C)O)C(C)C)C(C)C)C(=O)N[C@@H](C)C(=O)N[C@@H](CCC(=O)O)C(N)=O [Peptide 460]
3 | 0.0395 nM | 4.5 | 0.0892 nM | CC(C)C[C@H](NC(=O)[C@H](CC(C)C)NC(=O)[C@H](Cc1c[nH]c2ccccc12)NC(=O)[C@H](CCC(N)=O)NC(=O)[C@@H](NC(=O)[C@H](Cc1ccccc1)NC(=O)[C@H](CC(=O)O)NC(=O)[C@H](CCCNC(=N)N)NC(=O)[C@H](C)NC(=O)[C@H](CCCNC(=N)N)NC(=O)[C@H](CCCCNC(=O)COCCOCCNC(=O)COCCOCCNC(=O)CC[C@H](NC(=O)CCCCCCCCCCCCCCCCC(=O)O)C(=O)O)NC(=O)[C@@H](NC(=O)[C@H](CC(=O)O)NC(=O)[C@H](CC(C)C)NC(=O)[C@](C)(Cc1ccccc1)NC(=O)[C@H](CCCCN)NC(=O)[C@H](CO)NC(=O)[C@@H](NC(=O)[C@H](CC(=O)O)NC(=O)[C@H](CO)NC(=O)[C@@H](NC(=O)[C@H](Cc1ccccc1)NC(=O)[C@@H](NC(=O)CNC(=O)[C@H](CCC(N)=O)NC(=O)C(C)(C)NC(=O)[C@@H](N)Cc1c[nH]cn1)[C@@H](C)O)[C@@H](C)O)C(C)C)[C@@H](C)O)C(C)C)C(=O)N[C@@H](CCC(=O)O)C(=O)N[C@@H](C)C(=O)NCC(=O)O [Peptide 462] (H-H[Aib]QGTFTSDVSK[αMeF]LDTK([AEEA-AEEA-γGlu-C18 diacid])RARDFVQWLLEAG-OH; N-terminus assumed)
4 | 0.485 nM | 1.8 | 0.436 nM | CC(C)C[C@H](NC(=O)[C@H](CC(=O)O)NC(=O)[C@H](CC(C)C)NC(=O)[C@](C)(Cc1ccccc1)NC(=O)[C@H](CCCCN)NC(=O)[C@H](CO)NC(=O)[C@@H](NC(=O)[C@H](CC(=O)O)NC(=O)[C@H](CO)NC(=O)[C@@H](NC(=O)[C@H](Cc1ccccc1)NC(=O)[C@@H](NC(=O)CNC(=O)[C@H](CCC(N)=O)NC(=O)C(C)(C)NC(=O)[C@@H](N)Cc1c[nH]cn1)[C@@H](C)O)[C@@H](C)O)C(C)C)C(=O)N[C@@H](CCCCNC(=O)COCCOCCNC(=O)COCCOCCNC(=O)CC[C@H](NC(=O)CC[C@H](NC(=O)CCCCCCCCCCCCCCCCC(=O)O)C(=O)O)C(=O)O)C(=O)N[C@@H](CCCNC(=N)N)C(=O)N[C@@H](C)C(=O)N[C@@H](CCC(N)=O)C(=O)N[C@@H](CC(=O)O)C(=O)N[C@@H](Cc1ccccc1)C(=O)N[C@H](C(=O)N[C@@H](CCC(N)=O)C(=O)N[C@@H](Cc1c[nH]c2ccccc12)C(=O)N[C@@H](CC(C)C)C(=O)N[C@@H](CC(C)C)C(=O)NC(C)(C)C(=O)N[C@H](C(=O)O)[C@@H](C)O)C(C)C [Peptide 465] (H-H[Aib]QGTFTSDVSK[αMeF]LDLK([AEEA-AEEA-γGlu-γGlu-C18 diacid])RAQDFVQWLL[Aib]T-OH; N-terminus assumed)
5 | 0.0356 nM | 7.3 | 0.131 nM | CC(C)C[C@H](NC(=O)[C@H](Cc1c[nH]c2ccccc12)NC(=O)[C@H](CCC(N)=O)NC(=O)[C@@H](NC(=O)[C@H](Cc1ccccc1)NC(=O)[C@H](CC(=O)O)NC(=O)[C@H](CCC(N)=O)NC(=O)[C@H](C)NC(=O)[C@H](CCCNC(=N)N)NC(=O)[C@H](CCCCNC(=O)COCCOCCNC(=O)COCCOCCNC(=O)CC[C@H](NC(=O)CCCCCCCCCCCCCCCCC(=O)O)C(=O)O)NC(=O)[C@@H](NC(=O)[C@H](CC(=O)O)NC(=O)[C@H](CC(C)C)NC(=O)[C@](C)(Cc1ccccc1)NC(=O)[C@H](CCCCN)NC(=O)[C@H](CO)NC(=O)[C@@H](NC(=O)[C@H](CC(=O)O)NC(=O)[C@H](CO)NC(=O)[C@@H](NC(=O)[C@H](Cc1ccccc1)NC(=O)[C@@H](NC(=O)CNC(=O)[C@H](CCC(N)=O)NC(=O)C(C)(C)NC(=O)[C@@H](N)Cc1c[nH]cn1)[C@@H](C)O)[C@@H](C)O)C(C)C)[C@@H](C)O)C(C)C)C(=O)N[C@@H](CC(C)C)C(=O)N[C@@H](CCC(=O)O)C(=O)NC(C)(C)C(=O)NCC(N)=O [Peptide 466] (H-H[Aib]QGTFTSDVSK[αMeF]LDTK([AEEA-AEEA-γGlu-C18 diacid])RAQDFVQWLLE[Aib]G-NH2; N-terminus assumed)
6 | 0.0675 nM | 8.6 | 0.292 nM | CC(C)C[C@H](NC(=O)[C@H](Cc1c[nH]c2ccccc12)NC(=O)[C@H](CCC(N)=O)NC(=O)[C@@H](NC(=O)[C@H](Cc1ccccc1)NC(=O)[C@H](CC(=O)O)NC(=O)[C@H](CCC(N)=O)NC(=O)[C@H](C)NC(=O)[C@H](CCCNC(=N)N)NC(=O)[C@H](CCCCNC(=O)COCCOCCNC(=O)COCCOCCNC(=O)CC[C@H](NC(=O)CC[C@H](NC(=O)CCCCCCCCCCCCCCCCC(=O)O)C(=O)O)C(=O)O)NC(=O)[C@@H](NC(=O)[C@H](CC(=O)O)NC(=O)[C@H](CC(C)C)NC(=O)[C@](C)(Cc1ccccc1)NC(=O)[C@H](CCCCN)NC(=O)[C@H](CO)NC(=O)[C@@H](NC(=O)[C@H](CC(=O)O)NC(=O)[C@H](CO)NC(=O)[C@@H](NC(=O)[C@H](Cc1ccccc1)NC(=O)[C@@H](NC(=O)CNC(=O)[C@H](CCC(N)=O)NC(=O)C(C)(C)NC(=O)[C@@H](N)Cc1c[nH]cn1)[C@@H](C)O)[C@@H](C)O)C(C)C)[C@@H](C)O)C(C)C)C(=O)N[C@@H](CC(C)C)C(=O)N[C@@H](CCC(=O)O)C(=O)NC(C)(C)C(=O)NCC(N)=O [Peptide 468]
